Among the data in ChEMBL document CHEMBL1148247, “Synthesis and histone deacetylase inhibitory activity of cyclic tetrapeptides containing a retrohydroxamate as zinc ligand” (Bioorg Med Chem Lett, 2004) are IC50 and EC1000 values, retold here.

Where a SMILES comes first, the peptide text is derived from it. [ ]: non-standard residue; d: D form. The star is where a group is joined. Asu = N[C@@H](CCCCCC(=O)O)C(=O)O; aIle = CC[C@@H](C)[C@H](N)C(=O)O; NHOH = ON*

The target in one assay is Histone deacetylase. Briefly: Inhibitory activity against histone deacetylases (HDAC) prepared from mouse melanoma B16/BL6 cells. Format: cell-based.
The target in assay [1] is T1, Histone deacetylase 1 (Mus musculus, UniProt O09106).
Description: (§1) Inhibitory activity against histone deacetylases (HDAC1) prepared from mouse melanoma B16/BL6 cells
The species entered for the next assay is Mus musculus. The assay is described as follows: Effective concentration in histone deacetylases (HDAC) using p21 promoter assay.
Another assay has as its target T2, Histone deacetylase 8 (Mus musculus, UniProt Q8VH37).
T2 sequence (Q8VH37 whole entry): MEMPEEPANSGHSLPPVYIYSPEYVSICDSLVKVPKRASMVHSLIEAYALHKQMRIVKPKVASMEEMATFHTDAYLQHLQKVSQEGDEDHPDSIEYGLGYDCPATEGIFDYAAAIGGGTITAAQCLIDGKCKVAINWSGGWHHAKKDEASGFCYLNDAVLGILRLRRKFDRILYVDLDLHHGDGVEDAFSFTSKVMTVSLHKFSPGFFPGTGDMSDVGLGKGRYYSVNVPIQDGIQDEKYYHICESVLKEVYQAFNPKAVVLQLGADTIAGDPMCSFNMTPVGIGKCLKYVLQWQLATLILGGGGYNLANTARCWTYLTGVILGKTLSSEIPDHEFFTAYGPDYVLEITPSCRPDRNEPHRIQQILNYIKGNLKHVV
Briefly: Inhibitory activity against histone deacetylase 8 prepared from mouse melanoma B16/BL6 cells. In kind it is cell-based.

In assay [2] the target is T3, Protein deacetylase HDAC6 (Mus musculus, UniProt Q9Z2V5).
T3 sequence (Q9Z2V5 whole entry): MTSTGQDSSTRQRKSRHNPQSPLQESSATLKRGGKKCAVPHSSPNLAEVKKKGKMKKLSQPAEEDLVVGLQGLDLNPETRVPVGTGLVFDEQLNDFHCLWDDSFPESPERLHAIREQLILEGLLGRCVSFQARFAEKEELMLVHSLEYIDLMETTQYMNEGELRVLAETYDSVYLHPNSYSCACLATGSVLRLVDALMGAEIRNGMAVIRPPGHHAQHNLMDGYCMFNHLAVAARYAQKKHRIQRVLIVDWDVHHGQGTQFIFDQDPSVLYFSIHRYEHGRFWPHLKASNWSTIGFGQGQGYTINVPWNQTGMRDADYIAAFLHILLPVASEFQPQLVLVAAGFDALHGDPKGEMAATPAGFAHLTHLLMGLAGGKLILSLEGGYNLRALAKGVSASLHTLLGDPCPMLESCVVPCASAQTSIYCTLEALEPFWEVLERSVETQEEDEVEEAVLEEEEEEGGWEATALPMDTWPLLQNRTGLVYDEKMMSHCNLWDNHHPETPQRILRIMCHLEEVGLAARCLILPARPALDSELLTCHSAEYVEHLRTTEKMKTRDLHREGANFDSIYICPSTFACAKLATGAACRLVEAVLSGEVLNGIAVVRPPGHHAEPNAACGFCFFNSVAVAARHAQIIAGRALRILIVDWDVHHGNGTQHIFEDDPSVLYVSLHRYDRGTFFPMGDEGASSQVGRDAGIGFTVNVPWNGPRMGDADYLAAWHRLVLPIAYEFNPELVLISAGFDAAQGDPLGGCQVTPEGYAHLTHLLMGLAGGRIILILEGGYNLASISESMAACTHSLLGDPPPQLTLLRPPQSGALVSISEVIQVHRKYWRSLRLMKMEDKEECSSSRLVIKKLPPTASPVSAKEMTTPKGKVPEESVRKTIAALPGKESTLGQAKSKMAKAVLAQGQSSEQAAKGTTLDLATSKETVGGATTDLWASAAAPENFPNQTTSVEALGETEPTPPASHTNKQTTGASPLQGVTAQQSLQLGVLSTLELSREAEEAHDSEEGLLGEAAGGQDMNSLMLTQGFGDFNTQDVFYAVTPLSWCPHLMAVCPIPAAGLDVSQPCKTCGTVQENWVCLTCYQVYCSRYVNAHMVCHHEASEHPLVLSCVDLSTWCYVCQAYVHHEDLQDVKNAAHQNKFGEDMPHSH
The assay is described as follows: Inhibitory activity against histone deacetylase 6 prepared from mouse melanoma B16/BL6 cells. Format: cell-based.

For assay [3], the target named is T1, Histone deacetylase 1. The following applies: b16/bl6.
Description: as §1

T1 sequence (O09106 whole entry): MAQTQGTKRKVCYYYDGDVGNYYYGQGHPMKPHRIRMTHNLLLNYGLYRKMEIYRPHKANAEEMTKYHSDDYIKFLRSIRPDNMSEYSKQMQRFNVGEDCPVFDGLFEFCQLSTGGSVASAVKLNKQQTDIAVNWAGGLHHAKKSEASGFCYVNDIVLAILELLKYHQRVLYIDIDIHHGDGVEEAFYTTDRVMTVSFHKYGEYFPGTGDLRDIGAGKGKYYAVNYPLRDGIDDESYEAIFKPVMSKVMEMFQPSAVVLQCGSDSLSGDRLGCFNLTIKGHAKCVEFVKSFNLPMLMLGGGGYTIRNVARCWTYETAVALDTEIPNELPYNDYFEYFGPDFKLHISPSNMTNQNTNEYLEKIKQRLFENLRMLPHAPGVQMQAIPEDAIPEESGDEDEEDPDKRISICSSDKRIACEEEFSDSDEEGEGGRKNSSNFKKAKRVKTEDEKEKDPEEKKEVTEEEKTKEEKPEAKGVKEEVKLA

By IC50 is commonly meant the concentration at which inhibition is half-maximal. Consider `CC[C@@H](C)[C@@H]1NC(=O)[C@@H](Cc2ccc(OC)cc2)NC(=O)[C@H](CCCCN(O)C=O)NC(=O)[C@H]2CCCCN2C1=O`, for which the concentration for half-maximal inhibition (IC50) against Histone deacetylase stood at 0.957 µM.

Compound `CC[C@@H](C)[C@@H]1NC(=O)[C@@H](Cc2ccc(OC)cc2)NC(=O)[C@H](CCCCN(O)C(C)=O)NC(=O)[C@H]2CCCCN2C1=O` returned an IC50 against Histone deacetylase of 88.4 µM.

The compound `CC[C@H](C)[C@@H]1NC(=O)[C@@H](Cc2ccc(OC)cc2)NC(=O)[C@H](CCCCCC(=O)NO)NC(=O)[C@H]2CCCN2C1=O` (cyclo([Asu](NHOH)[dY](Me)I[dP])) returned a half-inhibitory concentration (IC50) on Histone deacetylase 1 [1] of 0.0004 µM.

On Histone deacetylase, `CC[C@@H](C)[C@@H]1NC(=O)[C@@H](Cc2ccc(OC)cc2)NC(=O)[C@H](CCCCN(O)C(C)=O)NC(=O)[C@@H]2CCCCN2C1=O` came in with a half-maximal inhibitory concentration (IC50) of 88.5 µM.

In the case of `CC[C@@H](C)[C@@H]1NC(=O)[C@@H](Cc2ccc(OC)cc2)NC(=O)[C@H](CCCCCCC(=O)NO)NC(=O)[C@@H]2CCCCN2C1=O`, the IC50 against Histone deacetylase was found to be 0.00396 µM.

The compound `CC[C@@H](C)[C@@H]1NC(=O)[C@@H](Cc2ccc(OC)cc2)NC(=O)[C@H](CCCCCN(O)C(C)=O)NC(=O)[C@@H]2CCCCN2C1=O` yielded a half-inhibitory concentration (IC50) at Histone deacetylase of 58 µM.

On Histone deacetylase, `CC[C@@H](C)[C@@H]1NC(=O)[C@@H](Cc2ccc(OC)cc2)NC(=O)[C@H](CCCCCCN(O)C=O)NC(=O)[C@@H]2CCCCN2C1=O` yielded a half-maximal inhibitory concentration (IC50) of 1.35 µM. Compared with the last compound, the IC50 is about 43-fold lower.

In the assay listed under Mus musculus, `CC[C@@H](C)[C@@H]1NC(=O)[C@@H](Cc2ccc(OC)cc2)NC(=O)[C@H](CCCCCC(=O)NO)NC(=O)[C@H]2CCCN2C1=O` (cyclo([Asu](NHOH)[dY](Me)[aIle][dP])) had an EC1000 of 0.022 µM.

In the case of `CC[C@@H](C)[C@@H]1NC(=O)[C@@H](Cc2ccc(OC)cc2)NC(=O)[C@H](CCCCCCN(O)C=O)NC(=O)[C@H]2CCCCN2C1=O`, the half-inhibitory concentration (IC50) against Histone deacetylase was 0.893 µM. In other words, the sub-micromolar range.

Consider `CC[C@@H](C)[C@@H]1NC(=O)[C@@H](Cc2ccc(OC)cc2)NC(=O)[C@H](CCCCCN(O)C=O)NC(=O)[C@H]2CCCN2C1=O`, for which the IC50 on Histone deacetylase 8 is 0.059 µM; in assay [2], 0.178 µM; against Histone deacetylase 1 [1], 0.067 µM. In addition, in the assay filed under Mus musculus, the EC1000 was 0.61 µM.

As for `CC[C@@H](C)[C@@H]1NC(=O)[C@@H](Cc2ccc(OC)cc2)NC(=O)[C@H](CCCCCN(O)C=O)NC(=O)[C@H]2CCCCN2C1=O`, the IC50 against Histone deacetylase came to 0.084 µM; at Histone deacetylase 8, 0.046 µM; in assay [2] it was 0.782 µM; against Histone deacetylase 1 [1], 0.026 µM.

In turn, `CC[C@@H](C)[C@@H]1NC(=O)[C@@H](Cc2ccc(OC)cc2)NC(=O)[C@H](CCCCCN(O)C(C)=O)NC(=O)[C@H]2CCCCN2C1=O` had a concentration for half-maximal inhibition (IC50) at Histone deacetylase of 43.8 µM. In other words, the double-digit micromolar range.

Regarding `CC[C@@H](C)[C@@H]1NC(=O)[C@@H](Cc2ccc(OC)cc2)NC(=O)[C@H](CCCCCN(O)C=O)NC(=O)[C@@H]2CCCN2C1=O`, the concentration for half-maximal inhibition (IC50) was found to be 0.033 µM at Histone deacetylase 1 [3], 0.034 µM on Histone deacetylase 8 (b16/bl6) and 0.029 µM in assay [2] (b16/bl6).

`CC[C@@H](C)[C@@H]1NC(=O)[C@@H](Cc2ccc(OC)cc2)NC(=O)[C@H](CCCCCN(O)C=O)NC(=O)[C@@H]2CCCCN2C1=O` had a 50% inhibitory concentration (IC50) against Histone deacetylase of 0.141 µM. This counts as sub-micromolar.

In the case of `CC(/C=C/C(=O)NO)=C\[C@@H](C)C(=O)c1ccc(N(C)C)cc1` [TRICHOSTATIN], the EC1000 in the assay listed under Mus musculus was determined as 0.19 µM.

`CC[C@@H](C)[C@@H]1NC(=O)[C@@H](Cc2ccc(OC)cc2)NC(=O)[C@H](CCCCN(O)C=O)NC(=O)[C@@H]2CCCCN2C1=O`: the IC50 on Histone deacetylase came to 1.392 µM.
